“Also recorded” adds a separate entry of the source.
Experiments:
INS-1 cells [1] = test: INS-1 cell toxicity (CCK-8 cell viability); conditions: for Cell viability (%): 24 hours, INS-1 cells, CCK-8; for toxicity against INS-1 cells: summary of Tables 1 and 2, up to 5 μg/mL or 5 μM
Procedure: Cell line INS-1 (Biohermes, Shanghai, China) is a […] insulinoma species and has insulin secretion ability. INS-1 cells were cultured in RPMI1640 (Cellgro, Manassas, Va., USA) medium supplemented with 10% fetal bovine serum (FBS), 100 units/mL penicillin G, 100 μg/mL streptomycin, 10 mM HEPES, 2 mM L-glutamine, 1 mM sodium pyruvate and 0.05 mM 2-mercapto ethanol under a condition of a temperature of 37° C., 90% air, and 10% CO2. Among the above-mentioned components, reagents not mentioned by the manufacturer were purchased from Gibco BRL, Life Technologies. The cultured INS-1 cells were inoculated in each well of a 96-well plate in the number of 1×10^4 in a medium of 100 μL and cultured for 24 hours to stabilize the cells. Next, the ginger extract, fraction thereof, and single compounds were added to a specific concentration, followed by culturing for 24 hours. Next, 10 μL of a CCK-8 reagent (Dojindo Laboratories, Japan) was added to each well, followed by culturing at a temperature of 37° C. After 1 hour, cell viability was measured by measuring absorbance at a wavelength of 450 nm on a BIO-TEK (Winooski, Vt., USA) microplate reader. The specific concentrations of the ginger extract and a fraction thereof were set to 1 μg/m L, 2.5 μg/mL, and 5 μg/mL, and the specific concentrations of the single compound were set to 1 μM, 2.5 μM, and 5 μM. Cell viability in Tables 1 and 2 was calculated as follows. Cell viability (%)=A/B×100 A: absorbance of sample to which a reagent is […]

ICR mice = test: Oral glucose tolerance test (OGTT); format: in vivo, mouse; conditions: 100 mg/kg oral 1 hour before glucose 2 g/Kg, caudal vein blood at 0-120 minutes, vs control and unprocessed/6-gingerol group
Procedure: ICR mice were used for OGTT experiments. ICR mice were fasted for 12 hours before the experiment, blood was collected from the caudal vein of mice that had been fasted for 12 hours, and the fasting blood glucose level was measured as the initial blood glucose level. Thereafter, experiments were conducted with a group administered with glucose (2 g/Kg) (control), a group administered with glucose and a raw ginger extract (100 mg/kg, not processed), and a group administered with a microwave-processed ginger product (100 mg/kg, processed). After oral administration for each concentration, glucose was orally administered 1 hour later, and measurement was performed by using a blood glucose meter from the caudal vein at 0, 15, 30, 60, and 120 minutes. FIG. 3 is a graph of results of an oral glucose tolerance test of a ginger extract and a microwave-processed ginger product.
Next, to test the efficacy of a single component of ginger, blood was collected from the caudal vein of mice that had been fasted for 12 hours, and the fasting blood glucose level was measured as the initial blood glucose level. Thereafter, experiments were conducted with a group administered with glucose (2 g/Kg) (control), a group administered with glucose and 6-gingerol (100 mg/kg), and a group administered with glucose and 6-shogaol (100 mg/kg). […]

INS-1 cells [2] = test: Glucose stimulated insulin secretion (GSIS) of INS-1 cell; format: cell-based, rat; conditions: for Stimulation index (SI): insulin secreted at 16.7 mM glucose divided by that at 3.3 mM glucose; for insulin secretion of INS-1 cells: summary in words of Tables 3 and 4
Procedure: Cell line INS-1 (Biohermes, Shanghai, China) is a […] insulinoma species and has insulin secretion ability. INS-1 cells were cultured in RPMI1640 (Cellgro, Manassas, Va., USA) medium supplemented with 10% fetal bovine serum (FBS), 100 units/mL penicillin G, 100 μg/mL streptomycin, 10 mM HEPES, 2 mM L-glutamine, 1 mM sodium pyruvate and 0.05 mM 2-mercapto ethanol under a condition of a temperature of 37° C., 90% air, and 10% CO2. Among the above-mentioned components, reagents not mentioned by the manufacturer were purchased from Gibco BRL, Life Technologies. 5×10^5 cultured INS-1 cells were inoculated in each well of the 12-well plate in the same medium of 2 mL and cultured for 24 hours under the same condition as described in Section (1) INS-1 cell culture to stabilize the cells. Then, 114 mM sodium chloride (NaCl), 4.4 mM potassium chloride (KCl), 1 mM magnesium sulfate (MgSO4), 1.28 mM calcium chloride (CaCl2)), 29.5 mM sodium hydrogen carbonate (NaHCO3), 10 mM HEPES; Gibco BRL Life Technologies), and 0.1% bovine serum albumin (BSA) were mixed, and the cells were washed twice with 2 mL of Krebs-Ringer buffer with a hydrogen ion concentration of pH 7.4. Thereafter, 2 mL of Krebs-Ringer buffer was added to the washed cells and incubated for 1 hour. Then, the ginger extract, each fraction, and each compound were incubated for 30 minutes in 1.8 mL of Krebs-Ringer buffer at a specific concentration. The specific concentrations of the ginger extract and a fraction thereof were set to 1 μg/m L, 2.5 μg/mL, and 5 μg/mL, and the specific concentrations of the single compound were set to 1 μM, 2.5 μM, and 5 μM. 0.2 mL of Krebs-Ringer buffers containing 33 mM and 167 mM glucose were each added to the wells and incubated for 1 hour. Thereafter, after centrifugation at 12,000 revolutions per minute (rpm) for 10 minutes at a temperature of 4° C., the supernatant was taken, and the amount of insulin was measured with a Rat insulin RIA kit (Gentaur Molecular Products, Belgium). The stimulation index (SI) is a value obtained by dividing a value measured at a high glucose concentration, that is, the amount of insulin secreted by stimulation of a 16.7 mM glucose concentration by a value measured at a low glucose concentration, that is, the amount of insulin secreted by stimulation of a 3.3 mM glucose concentration. As a positive control, gliclazide was used at concentrations of 2.5 μM, 5.0 μM, 10 μM, and 20 μM.

[3] = through induction of cell defense mechanisms; cited from earlier work

| Molecule | Cell viability (%) (INS-1 cells [1]; 1 μM) | Cell viability (%) (INS-1 cells [1]; 2.5 μM) | Cell viability (%) (INS-1 cells [1]; 5 μM) | toxicity against INS-1 cells (INS-1 cells [1]) | increase in blood glucose level (ICR mice) | Stimulation index (SI) (INS-1 cells [2]; 1 μM) | Stimulation index (SI) (INS-1 cells [2]; 2.5 μM) | Stimulation index (SI) (INS-1 cells [2]; 5 μM) | insulin secretion of INS-1 cells (INS-1 cells [2]) | anticancer activity compared with [6]-gingerol [3] |
| --- | --- | --- | --- | --- | --- | --- | --- | --- | --- | --- |
| CCCCC/C=C/C(=O)CCc1ccc(O)c(OC)c1 [[6]-shogaol] | 101.1 ± 0.4% | 101.8 ± 0.7% | 101.2 ± 0.2% | not to exhibit toxicity | significantly reduced | 3.0 ± .0 | 3.5 ± 0.1 | 4.8 ± 0.0 | secreted insulin concentration-dependently; also recorded: promote insulin secretion in INS-1 cells, as compared with other components |  |
| CCCCCCCCC[C@H](O)CC(=O)CCc1ccc(O)c(OC)c1 [[10]-gingerol] | 99.3 ± 1.6% | 100.6 ± 3.3% | 100.7 ± 3.5% | not to exhibit toxicity |  | 1.7 ± 0.2 | 1.7 ± 0.1 | 1.5 ± 0.1 | secreted insulin concentration-dependently |  |
| shogaol |  |  |  |  |  |  |  |  |  | more than 10 times |
| Cc1ccc(S(=O)(=O)NC(=O)NN2CC3CCCC3C2)cc1 (stereo not shown) [Glyclazide, gliclazide, reference compound] | 99.7 ± 0.2% | 96.3 ± 0.9% | 91.1 ± 1.4% |  |  | 1.3 ± 0.0 | 1.9 ± 0.1 | 3.0 ± 0.1 |  |  |
| CCCCCCC/C=C/C(=O)CCc1ccc(O)c(OC)c1 [[8]-shogaol] | 94.0 ± 2.6% | 96.3 ± 1.9% | 92.4 ± 1.7% | not to exhibit toxicity |  | 1.3 ± 0.1 | 1.5 ± 0.1 | 1.8 ± 0.1 | secreted insulin concentration-dependently |  |
| CCCCC[C@H](O)CC(=O)CCc1ccc(O)c(OC)c1 [[6]-gingerol] | 98.1 ± 2.7% | 98.7 ± 2.3% | 98.2 ± 3.5% | not to exhibit toxicity |  | 2.4 ± 0.0 | 2.2 ± 0.1 | 2.3 ± 0.1 | secreted insulin concentration-dependently |  |
| CCCCCCC[C@H](O)CC(=O)CCc1ccc(O)c(OC)c1 [[8]-gingerol] |  |  |  |  |  | 1.1 ± 0.0 | 1.5 ± 0.0 | 2.1 ± 0.0 | secreted insulin concentration-dependently |  |
| CCCCCCCCC/C=C/C(=O)CCc1ccc(O)c(OC)c1 [[10]-shogaol] | 101.9 ± 2.2% | 99.8 ± 3.9% | 99.6 ± 3.3% | not to exhibit toxicity |  | 1.9 ± 0.0 | 1.4 ± 0.0 | 1.4 ± 0.1 | secreted insulin concentration-dependently |  |
